Read-outs that look alike come from different tables or passages of the source.

Holding throughout (assay type): cell-based
One experiment has as its system A375. Nature of the experiment: Cancer cell proliferation inhibition, CCK-8, 72 hours. How it is done:
(§1) MTS assay was performed to evaluate the cancer cell proliferation inhibition (cancer cell apoptosis) effect of the compounds of examples of the present invention. Particularly, the assay was performed using the cancer cell lines GIST-T1, GIST-T1/816, GIST-430, GIST-430/654, GIST-R1, GIST-R3, M-NFS-60, RetParental (Ba/F3), Retwt (Ba/F3), RetV804M (Ba/F3), RET (LC2/ad-CDC6), FYN (MCP-1), FYN (FN), MDA-MB-231, Huh7, K562, T315I(Ba/F3), SK-MEL-28 and A375. Cell culture was performed using a medium suitable for each cell line.
(§2) In the meantime, MDA-MB-231 and A375 cells were seeded in a 96well plate at the density of 2×10^3/100 μl/well, which stood for a day for attachment. The culture fluid was eliminated. After removing the culture medium, the medium was replaced with the culture medium containing the compounds of the present invention at 3-times serially diluted 9 concentrations (0.0015-10 μM) and the DMSO control, followed by incubation in a 37° C. CO2 incubator for 72 hours. On the other hand, K-562 and Ba/F3-T315I cells were seeded in a 96-well plate at the density of 1×10^4/90 μl/well. The plate containing K-562 cells was added with the culture medium containing the compounds of the present invention at 3-times serially diluted 9 concentrations (0.015-100 μM) and the DMSO control (10 μl/well). The plate containing Ba/F3-T315I cells was added with the culture medium containing the compounds of the present invention at 5-times serially diluted 9 concentrations (0.000256-100 μM) and the DMSO control (10 μl/well). The final concentration was made 0-10 μM and then the cells were cultured in a 37° C. CO2 incubator for 72 hours.
(§3) A375, K-562 and Ba/F3-T315I cells were added with CCK-8 solution at the concentration of 10 μl/well, followed by orbital shaking for 30 seconds. Then, the cells were cultured in a 37° C. CO2 incubator for 2 hours. OD450 was measured by using a microplate reader. The OD value of the well treated with the culture medium and CCK-8 solution alone was subtracted from the OD value measured above, followed by calculation of IC50 using GraphPad Prism 6 software.

The target of a further experiment is T1, T315I (Ba/F3) (Homo sapiens, UniProt P00519, T315I, cells depend on it).
T1 construct: fused on or other part: P11274 (Breakpoint cluster region protein)
The experiment is described as above. To be noted: read-out: T315I (Ba/F3) IC50. How it is done:
as §1, §2, §3

The test system of a further experiment is K562. The experiment is described as above. How it is done: as §1, §2, §3
The test system of a further experiment is Huh7. Put plainly: Cancer cell proliferation inhibition, MTS assay, 72 hours. To be noted: Homo sapiens, Huh-7. How it is done:
as §1
(§4) Other cell lines were seeded in a 96-well plate containing the corresponding medium appropriate for each cell line at the density of 3,000 cells/well, followed by culture in a 5% CO2 and 37° C. incubator for 24 hours. The compounds of examples of the present invention were added to each well at the concentration of from the highest volume of 50 μM to every step of serial dilution. The solvent control, dimethylsulfoxide (DMSO), was treated at the same concentration of 0.05% (v/v) as the volume used for the treatment of the compounds above. Each cell line was cultured for 72 hours. To investigate the cell viability, the MTS and PMS (phenazine methosulfate) mixture provided in CellTiter 96® AQuous Non-Radioactive Cell Proliferation Assay Kit (Promega) was added to each cell culture medium, followed by additional culture at 37° C. for 2 hours. Then, OD450 was measured. Based on OD of the solvent control cells not treated with any compounds of the present invention, the cell proliferation inhibition rate was calculated according to the treatment concentration of each compound. At this time, the concentration of each compound that was able to inhibit cancer cell proliferation up to 50% was determined as IC50 (uM). IC50 of each compound was determined with three data sets and calculated by using Prism softwater (version 6.01, GraphPad).
On the technique in general: Tetrazolium assays rely on reduction of a dye to a coloured formazan, in cell work by metabolically active cells.

Another experiment deals with MDA-MB-231. Put plainly: Real time cell proliferation, IncuCyte ZOOM, 72 hours.
A further experiment deals with RET (LC2/ad-CDC6). Nature of the experiment: Cancer cell proliferation inhibition, MTS assay, 72 hours. To be noted: 72 h. How it is done:
as §1, §4

In the case of `Cc1ccc(C(=O)Nc2ccc3ncsc3c2)cc1C#Cc1cnc2c(Nc3cnn(C)c3)cccn12` [Example 37, N-(benzo[d]thiazol-6-yl)-4-methyl-3-((8-((1-methyl-1H-pyrazol-4-yl)amino)imidazo[1,2-a]pyridin-3-yl)ethynyl)benzamide], the IC50 (in general, the midpoint of a concentration-inhibition curve) in the experiment with A375 (Homo sapiens, A-375, 72 h) was more than 10000 nM; in the experiment with K562 (Homo sapiens, K562, 72 h), 2 nM; in the experiment with Huh7 it was 1800 nM; in the experiment on MDA-MB-231 (Homo sapiens, MDA-MB-231, 72 h) it was more than 10000 nM. Also, the GI50 on T315I (Ba/F3) was 663 nM.
Turning to `Cc1ccc(C(=O)Nc2ccc(CN3CCCN(C)CC3)c(C(F)(F)F)c2)cc1C#Cc1cnc2c(Nc3cnn(C(C)C)c3)cccn12` [Example 38, 3-((8-((1-isopropyl-1H-pyrazol-4-yl)amino)imidazo[1,2-a]pyridin-3-yl)ethynyl)-4-methyl-N-(4-((4-methyl-1,4-diazepin-1-yl)methyl)-3-(trifluoromethyl)phenyl)benzamide], the concentration for half-maximal inhibition (IC50) in the experiment with A375 (Homo sapiens, A-375, 72 h) was found to be 668 nM; with K562 (Homo sapiens, K562, 72 h), 19 nM; with Huh7, 247 nM; with MDA-MB-231 (Homo sapiens, MDA-MB-231, 72 h), 770 nM. Moreover, the GI50 on T315I (Ba/F3) was 133 nM.
Turning to `Cc1ccc(C(=O)Nc2ccc(CN3CCCN(C)CC3)c(C(F)(F)F)c2)cc1C#Cc1cnc2c(Nc3cnn(CCCN(C)C)c3)cccn12` [Example 39, 3-((8-((1-(3-(dimethylamino)propyl)-1H-pyrazol-4-yl)amino)imidazo[1,2-a]pyridin-3-yl)ethynyl)-4-methyl-N-(4-((4-methyl-1,4-diazepin-1-yl)methyl)-3-(trifluoromethyl)phenyl)benzamide], the IC50 with A375 (Homo sapiens, A-375, 72 h) amounted to 1520 nM; in the experiment on K562 (Homo sapiens, K562, 72 h), 43 nM; with Huh7, 457 nM; in the experiment on MDA-MB-231 (Homo sapiens, MDA-MB-231, 72 h), 1460 nM. In addition, the GI50 on T315I (Ba/F3) is 238 nM.
In the case of `Cc1cc(Nc2cccn3c(C#Cc4cc(C(=O)Nc5ccc(CN6CCC(N(C)C)C6)c(C(F)(F)F)c5)ccc4C)cnc23)no1` (stereo not drawn) [Example 45, N-(4-((3-(dimethylamino)pyrrolidin-1-yl)methyl)-3-(trifluoromethyl)phenyl)-4-methyl-3-((8-((5-methylisoxazol-3-yl)amino)imidazo[1,2-a]pyridin-3-yl)ethynyl)benzamide], the IC50 in the experiment on A375 (Homo sapiens, A-375, 72 h) is 720 nM; with K562 (Homo sapiens, K562, 72 h), 2 nM; in the experiment with RET (LC2/ad-CDC6) it was more than 10 nM; with MDA-MB-231 (Homo sapiens, MDA-MB-231, 72 h) it was 816 nM. For the same molecule, at T315I (Ba/F3), the GI50 is 145 nM.
In the case of `COCCCn1cc(Nc2cccn3c(C#Cc4cc(C(=O)Nc5ccc(CN6CCN(C)[C@@H](C)C6)c(C(F)(F)F)c5)ccc4C)cnc23)cn1` [Example 46, (S)—N-(4-((3,4-dimethylpiperazin-1-yl)methyl)-3-(trifluoromethyl)phenyl)-3-((8-((1-(3-methoxypropyl)-1H-pyrazol-4-yl)amino)imidazo[1,2-a]pyridin-3-yl)ethynyl)-4-methylbenzamide], the IC50 in the experiment with A375 (Homo sapiens, A-375, 72 h) was 250 nM; with K562 (Homo sapiens, K562, 72 h), 7 nM; in the experiment on RET (LC2/ad-CDC6), more than 10 nM; in the experiment with MDA-MB-231 (Homo sapiens, MDA-MB-231, 72 h) it was 273 nM. In addition, the GI50 on T315I (Ba/F3) worked out at 6.27 nM.
Turning to `Cc1ccc(C(=O)Nc2ccc(CN3CCN(C)[C@@H](C)C3)c(C(F)(F)F)c2)cc1C#Cc1cnc2c(Nc3cnn(C(C)C)c3)cccn12` [Example 48, (S)—N-(4-((3,4-dimethylpiperazin-1-yl)methyl)-3-(trifluoromethyl)phenyl)-3-((8-((1-isopropyl-1H-pyrazol-4-yl)amino)imidazo[1,2-a]pyridin-3-yl)ethynyl)-4-methylbenzamide], the IC50 in the experiment with A375 (Homo sapiens, A-375, 72 h) is 406 nM; in the experiment with K562 (Homo sapiens, K562, 72 h), less than 1 nM; with RET (LC2/ad-CDC6) it was more than 10 nM; with MDA-MB-231 (Homo sapiens, MDA-MB-231, 72 h) it was 382 nM. On T315I (Ba/F3), the GI50 amounted to 86.3 nM.
Taken in the same sequence, the figures for `Cc1ccc(C(=O)Nc2ccc(CN3CCN(C)[C@@H](C)C3)c(C(F)(F)F)c2)cc1C#Cc1cnc2c(Nc3cnn(CCCN(C)C)c3)cccn12` [Example 49, (S)-3-((8-((1-(3-(dimethylamino)propyl)-1H-pyrazol-4-yl)amino)imidazo[1,2-a]pyridin-3-yl)ethynyl)-N-(4-((3,4-dimethylpiperazin-1-yl)methyl)-3-(trifluoromethyl)phenyl)-4-methylbenzamide] were 1020 nM, 5 nM, more than 10 nM, 513 nM and 217 nM.
As for `CCn1cc(Nc2cccn3c(C#Cc4cc(C(=O)Nc5ccc(CN6CC[C@@H](N(C)C)C6)c(C(F)(F)F)c5)ccc4C)cnc23)cn1` [Example 53, (R)—N-(4-((3-(dimethylamino)pyrrolidin-1-yl)methyl)-3-(trifluoromethyl)phenyl)-3-((8-((1-ethyl-1H-pyrazol-4-yl)amino)imidazo[1,2-a]pyridin-3-yl)ethynyl)-4-methylbenzamide], the IC50 was 285 nM in the experiment with A375 (Homo sapiens, A-375, 72 h); less than 1 nM with K562 (Homo sapiens, K562, 72 h); more than 10 nM in the experiment with RET (LC2/ad-CDC6); 324 nM with MDA-MB-231 (Homo sapiens, MDA-MB-231, 72 h). In addition, on T315I (Ba/F3), the GI50 was 2.67 nM.
As to `CCn1cc(Nc2cccn3c(C#Cc4cc(C(=O)Nc5ccc(CN6CC[C@H](N(C)C)C6)c(C(F)(F)F)c5)ccc4C)cnc23)cn1` [Example 54, (S)—N-(4-((3-(dimethylamino)pyrrolidin-1-yl)methyl)-3-(trifluoromethyl)phenyl)-3-((8-((1-ethyl-1H-pyrazol-4-yl)amino)imidazo[1,2-a]pyridin-3-yl)ethynyl)-4-methylbenzamide], the IC50 with A375 (Homo sapiens, A-375, 72 h) was 454 nM; in the experiment on K562 (Homo sapiens, K562, 72 h), less than 1 nM; with RET (LC2/ad-CDC6), more than 10 nM; in the experiment with MDA-MB-231 (Homo sapiens, MDA-MB-231, 72 h) it was 388 nM. For the same molecule, on T315I (Ba/F3), the GI50 came out at 30.9 nM.
As to `CCn1cc(Nc2cccn3c(C#Cc4cc(C(=O)Nc5ccc(N6CCOCC6)c(F)c5)ccc4C)cnc23)cn1` [Example 56, 3-((8-((1-ethyl-1H-pyrazol-4-yl)amino)imidazo[1,2-a]pyridin-3-yl)ethynyl)-N-(3-fluoro-4-morpholinophenyl)-4-methylbenzamide], the IC50 in the experiment on A375 (Homo sapiens, A-375, 72 h) is more than 10000 nM; with K562 (Homo sapiens, K562, 72 h) it was less than 1 nM; with RET (LC2/ad-CDC6) it was more than 10 nM; in the experiment with MDA-MB-231 (Homo sapiens, MDA-MB-231, 72 h), more than 10000 nM. At T315I (Ba/F3), the GI50 came to 1140 nM.
On to `COCCn1cc(Nc2cccn3c(C#Cc4cc(C(=O)Nc5cc(-n6cnc(C)c6)cc(C(F)(F)F)c5)ccc4C)cnc23)cn1` [Example 71], for which the GI50 at T315I (Ba/F3) stood at 25.2 nM. Further, the IC50 is 6 nM in the experiment on K562 (Homo sapiens, K562, 72 h); 955 nM in the experiment with Huh7; 4730 nM in the experiment with MDA-MB-231 (Homo sapiens, MDA-MB-231, 72 h).
As to `CCN1CCN(Cc2ccc(NC(=O)c3ccc(C)c(C#Cc4cnc5c(Nc6cnn(CCN(C)C)c6)cccn45)c3)cc2C(F)(F)F)CC1` [Example 73], on T315I (Ba/F3), the GI50 turned out to be 421 nM. Moreover, the IC50 was less than 1.5 nM in the experiment on K562 (Homo sapiens, K562, 72 h) and 916 nM with MDA-MB-231 (Homo sapiens, MDA-MB-231, 72 h).
`Cc1ccc(NC(=O)C2(C(=O)Nc3ccc(F)cc3)CC2)cc1C#Cc1cnc2c(Nc3cnn(C)c3)cccn12` [Example 79]: the IC50 is more than 10000 nM in the experiment on A375 (Homo sapiens, A-375, 72 h); 763 nM with K562 (Homo sapiens, K562, 72 h); 5650 nM in the experiment with Huh7; more than 10000 nM in the experiment with MDA-MB-231 (Homo sapiens, MDA-MB-231, 72 h). Further, the GI50 on T315I (Ba/F3) came out at 5410 nM.
Turning to `Cc1ccc(C(=O)Nc2ccc(CN3CCN(C)[C@H](C)C3)c(C(F)(F)F)c2)cc1C#Cc1cnc2c(Nc3cnn(C(C)C)c3)cccn12` [Example 81, (R)—N-(4-((3,4-dimethylpiperazin-1-yl)methyl)-3-(trifluoromethyl)phenyl)-3-((8-((1-isopropyl-1H-pyrazol-4-yl)amino)imidazo[1,2-a]pyridin-3-yl)ethynyl)-4-methylbenzamide], the values for the IC50 with A375, in the experiment on K562 and in the experiment on MDA-MB-231 were 1960 nM, 43 nM and 1730 nM, respectively. For the same molecule, at T315I (Ba/F3), the GI50 came out at 190 nM.

The record behind these values is US10870647B2, “Imidazopyridine derivative, method for preparing same, and pharmaceutical composition containing same as active ingredient for preventing or treating cancer” (DAEGU-GYEONGBUK MEDICAL INNOVATION FOUNDATION, priority 2016, dated 2020).
